Measurements as given in patent publication US12516056B2, “Compounds for inhibition of janus kinase 1” (MANKIND PHARMA LTD., priority 2019, dated 2026).
Where two headings read alike, the source gives them in different places.

Assays:
[1] = system: STAT5 phosphorylation by GMCSF in TF-1 cells; assay: JAK cellular assay: STAT5 phosphorylation by GMCSF in TF-1 cells (HTRF); assay type: cell-based; settings: Homo sapiens; TF-1 cells, GMCSF 5 ng/ml, pSTAT5 HTRF; read-out: Cell Based Assay (μM) TF-1/GMCSF/pSTAT5
Summary of the method: (§1)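 TF-1 cells starved overnight in low-serum OptiMEM, then 120,000/well in RPMI, preincubated with compound 30 min at 37 °C (0.2% DMSO final). Stimulation 20 min with IL-6 30 ng/ml (pSTAT3) or GMCSF 5 ng/ml (pSTAT5); lysate phospho-STAT by HTRF, unstimulated background subtracted.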

[2] = system: STAT3 phosphorylation by IL-6 in TF-1 cells; assay: JAK cellular assay: STAT3 phosphorylation by IL-6 in TF-1 cells (HTRF); assay type: cell-based; settings: IL-6 30 ng/ml, pSTAT3 HTRF, read-out: Cell Based Assay (μM) TF-1/IL-6/pSTAT3
Summary of the method: as §1

[3] = molecular target: T1, Recombinant JAK2 (Homo sapiens, UniProt O60674); assay: JAK biochemical assay (LANCE Ultra TR-FRET), JAK2; settings: recombinant JAK2, TR-FRET; read-out: Biochemical Assay (μM) JAK2
T1 construct: purchased Carna Biosciences
T1 sequence (O60674 whole entry): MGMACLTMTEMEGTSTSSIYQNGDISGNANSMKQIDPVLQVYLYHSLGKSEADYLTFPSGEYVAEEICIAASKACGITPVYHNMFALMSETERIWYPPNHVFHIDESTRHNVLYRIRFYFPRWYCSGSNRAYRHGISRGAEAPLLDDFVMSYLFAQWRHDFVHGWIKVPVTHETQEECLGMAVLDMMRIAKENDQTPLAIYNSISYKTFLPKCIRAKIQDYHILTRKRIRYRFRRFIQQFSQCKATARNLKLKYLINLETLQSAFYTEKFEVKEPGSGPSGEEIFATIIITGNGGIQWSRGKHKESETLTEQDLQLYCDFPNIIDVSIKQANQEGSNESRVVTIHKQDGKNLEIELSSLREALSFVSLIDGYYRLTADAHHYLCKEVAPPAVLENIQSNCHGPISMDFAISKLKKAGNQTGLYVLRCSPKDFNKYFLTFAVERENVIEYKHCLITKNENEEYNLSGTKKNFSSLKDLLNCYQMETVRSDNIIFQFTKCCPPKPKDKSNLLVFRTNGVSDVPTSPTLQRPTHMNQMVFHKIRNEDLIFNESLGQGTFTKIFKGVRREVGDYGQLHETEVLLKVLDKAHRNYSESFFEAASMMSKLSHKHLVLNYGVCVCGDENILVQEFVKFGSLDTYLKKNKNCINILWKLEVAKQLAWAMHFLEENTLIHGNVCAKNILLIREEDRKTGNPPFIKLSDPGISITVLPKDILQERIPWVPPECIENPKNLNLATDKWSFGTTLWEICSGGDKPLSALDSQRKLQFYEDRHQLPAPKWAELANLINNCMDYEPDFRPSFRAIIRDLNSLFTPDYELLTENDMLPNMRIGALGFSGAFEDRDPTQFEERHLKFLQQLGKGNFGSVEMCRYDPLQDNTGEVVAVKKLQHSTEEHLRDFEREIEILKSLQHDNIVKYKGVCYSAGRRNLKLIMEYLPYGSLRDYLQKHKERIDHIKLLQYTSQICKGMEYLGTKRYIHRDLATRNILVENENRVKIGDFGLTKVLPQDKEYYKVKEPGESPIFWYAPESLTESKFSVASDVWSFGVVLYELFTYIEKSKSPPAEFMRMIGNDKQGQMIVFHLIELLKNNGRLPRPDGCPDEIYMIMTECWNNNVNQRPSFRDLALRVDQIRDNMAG
Summary of the method: (§2)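 TR-FRET read-out of ULight substrate phosphorylation by recombinant kinase gives % inhibition relative to vehicle. The assay buffer is HEPES pH 7.5 with EGTA, MgCl2, DTT and Tween-20.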

[4] = molecular target: T2, Recombinant TYK2 (Homo sapiens, UniProt P29597); assay: JAK biochemical assay (LANCE Ultra TR-FRET), TYK2; settings: recombinant TYK2, TR-FRET; read-out: Biochemical Assay (μM) TYK2
T2 construct: purchased Carna Biosciences
T2 sequence (P29597 whole entry): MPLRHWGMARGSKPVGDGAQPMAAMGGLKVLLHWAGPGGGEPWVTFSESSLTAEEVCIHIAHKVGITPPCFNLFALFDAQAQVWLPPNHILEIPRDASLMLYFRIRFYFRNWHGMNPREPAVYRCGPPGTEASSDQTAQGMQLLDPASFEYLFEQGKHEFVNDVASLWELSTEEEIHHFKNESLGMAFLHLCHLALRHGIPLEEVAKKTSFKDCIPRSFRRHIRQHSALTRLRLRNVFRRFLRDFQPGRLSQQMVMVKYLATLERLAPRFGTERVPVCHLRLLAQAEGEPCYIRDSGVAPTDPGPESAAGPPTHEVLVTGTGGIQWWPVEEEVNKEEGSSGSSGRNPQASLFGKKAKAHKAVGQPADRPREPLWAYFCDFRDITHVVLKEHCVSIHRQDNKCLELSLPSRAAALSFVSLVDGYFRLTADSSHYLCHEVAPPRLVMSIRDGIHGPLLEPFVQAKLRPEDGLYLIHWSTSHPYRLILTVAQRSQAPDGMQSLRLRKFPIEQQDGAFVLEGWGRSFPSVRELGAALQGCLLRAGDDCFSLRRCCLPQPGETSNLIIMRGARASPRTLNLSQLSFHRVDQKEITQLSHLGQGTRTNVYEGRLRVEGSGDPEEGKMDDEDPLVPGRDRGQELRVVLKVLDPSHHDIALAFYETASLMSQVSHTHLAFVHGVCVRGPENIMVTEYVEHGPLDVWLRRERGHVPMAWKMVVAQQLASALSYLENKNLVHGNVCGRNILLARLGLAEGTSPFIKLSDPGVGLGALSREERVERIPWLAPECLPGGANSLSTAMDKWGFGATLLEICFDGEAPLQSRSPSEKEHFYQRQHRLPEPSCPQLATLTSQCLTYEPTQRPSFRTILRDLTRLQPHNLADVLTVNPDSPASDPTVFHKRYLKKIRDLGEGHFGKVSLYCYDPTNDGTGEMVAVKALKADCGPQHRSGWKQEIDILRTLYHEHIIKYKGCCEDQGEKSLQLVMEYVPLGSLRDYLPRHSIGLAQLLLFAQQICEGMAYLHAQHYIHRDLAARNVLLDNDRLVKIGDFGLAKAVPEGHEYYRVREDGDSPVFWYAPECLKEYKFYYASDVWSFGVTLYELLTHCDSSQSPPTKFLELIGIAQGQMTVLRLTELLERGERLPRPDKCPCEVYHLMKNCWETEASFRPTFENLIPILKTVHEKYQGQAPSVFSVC
Summary of the method: as §2

[5] = molecular target: T3, Recombinant JAK1 (Homo sapiens, UniProt P23458); assay: JAK biochemical assay (LANCE Ultra TR-FRET), JAK1; settings: recombinant JAK1, TR-FRET; read-out: Biochemical Assay (μM) JAK1
T3 construct: purchased Carna Biosciences
T3 sequence (P23458 whole entry): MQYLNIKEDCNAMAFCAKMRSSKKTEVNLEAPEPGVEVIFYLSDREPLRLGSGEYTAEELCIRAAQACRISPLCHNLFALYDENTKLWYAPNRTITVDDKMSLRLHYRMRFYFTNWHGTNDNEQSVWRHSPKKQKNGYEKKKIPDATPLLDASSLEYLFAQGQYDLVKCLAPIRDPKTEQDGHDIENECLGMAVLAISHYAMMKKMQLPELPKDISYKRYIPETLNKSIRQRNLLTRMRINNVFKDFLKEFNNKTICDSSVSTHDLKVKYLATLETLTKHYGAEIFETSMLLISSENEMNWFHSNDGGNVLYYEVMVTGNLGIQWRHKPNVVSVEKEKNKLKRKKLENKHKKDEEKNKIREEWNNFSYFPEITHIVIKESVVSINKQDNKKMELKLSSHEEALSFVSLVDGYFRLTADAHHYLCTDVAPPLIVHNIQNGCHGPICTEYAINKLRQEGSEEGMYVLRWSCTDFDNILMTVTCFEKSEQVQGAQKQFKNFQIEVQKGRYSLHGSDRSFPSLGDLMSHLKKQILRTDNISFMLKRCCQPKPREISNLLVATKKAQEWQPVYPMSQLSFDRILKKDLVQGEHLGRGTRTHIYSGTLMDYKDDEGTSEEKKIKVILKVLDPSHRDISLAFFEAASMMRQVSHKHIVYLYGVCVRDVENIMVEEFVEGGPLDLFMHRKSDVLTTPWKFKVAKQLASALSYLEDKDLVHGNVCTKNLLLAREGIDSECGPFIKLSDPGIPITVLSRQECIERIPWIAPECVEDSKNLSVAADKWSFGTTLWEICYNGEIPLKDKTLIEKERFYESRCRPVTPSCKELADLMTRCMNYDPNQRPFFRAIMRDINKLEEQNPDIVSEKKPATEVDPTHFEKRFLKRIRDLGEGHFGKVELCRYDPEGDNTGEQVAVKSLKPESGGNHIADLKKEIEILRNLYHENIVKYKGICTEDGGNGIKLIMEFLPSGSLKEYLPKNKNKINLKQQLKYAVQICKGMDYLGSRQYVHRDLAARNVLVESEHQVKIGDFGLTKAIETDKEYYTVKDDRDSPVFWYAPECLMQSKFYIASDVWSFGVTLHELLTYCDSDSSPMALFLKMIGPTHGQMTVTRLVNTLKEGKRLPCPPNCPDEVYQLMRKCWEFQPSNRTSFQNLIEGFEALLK
Summary of the method: as §2

[6] = system: STAT5 phosphorylation by IL-2 in HT-2 cells; assay: STAT5 phosphorylation by IL-2 in HT-2 cells (HTRF); assay type: cell-based; settings: IL-2 50 U/ml, pSTAT5 HTRF, read-out: Cell Based Assay (μM) HT-2/IL-2/pSTAT5
Summary of the method: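 Starved HT-2 cells (120,000/well) were preincubated 30 min at 37 °C with compound (0.2% DMSO), then stimulated 20 min with human IL-2 (50 U/ml). pSTAT5 in lysates measured by HTRF, with unstimulated-cell background subtracted.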

[7] = molecular target: T4, Recombinant JAK3 (Homo sapiens, UniProt P52333); assay: JAK biochemical assay (LANCE Ultra TR-FRET), JAK3; settings: recombinant JAK3, TR-FRET; read-out: Biochemical Assay (μM) JAK3
T4 construct: purchased Carna Biosciences
T4 sequence (P52333 1-1124): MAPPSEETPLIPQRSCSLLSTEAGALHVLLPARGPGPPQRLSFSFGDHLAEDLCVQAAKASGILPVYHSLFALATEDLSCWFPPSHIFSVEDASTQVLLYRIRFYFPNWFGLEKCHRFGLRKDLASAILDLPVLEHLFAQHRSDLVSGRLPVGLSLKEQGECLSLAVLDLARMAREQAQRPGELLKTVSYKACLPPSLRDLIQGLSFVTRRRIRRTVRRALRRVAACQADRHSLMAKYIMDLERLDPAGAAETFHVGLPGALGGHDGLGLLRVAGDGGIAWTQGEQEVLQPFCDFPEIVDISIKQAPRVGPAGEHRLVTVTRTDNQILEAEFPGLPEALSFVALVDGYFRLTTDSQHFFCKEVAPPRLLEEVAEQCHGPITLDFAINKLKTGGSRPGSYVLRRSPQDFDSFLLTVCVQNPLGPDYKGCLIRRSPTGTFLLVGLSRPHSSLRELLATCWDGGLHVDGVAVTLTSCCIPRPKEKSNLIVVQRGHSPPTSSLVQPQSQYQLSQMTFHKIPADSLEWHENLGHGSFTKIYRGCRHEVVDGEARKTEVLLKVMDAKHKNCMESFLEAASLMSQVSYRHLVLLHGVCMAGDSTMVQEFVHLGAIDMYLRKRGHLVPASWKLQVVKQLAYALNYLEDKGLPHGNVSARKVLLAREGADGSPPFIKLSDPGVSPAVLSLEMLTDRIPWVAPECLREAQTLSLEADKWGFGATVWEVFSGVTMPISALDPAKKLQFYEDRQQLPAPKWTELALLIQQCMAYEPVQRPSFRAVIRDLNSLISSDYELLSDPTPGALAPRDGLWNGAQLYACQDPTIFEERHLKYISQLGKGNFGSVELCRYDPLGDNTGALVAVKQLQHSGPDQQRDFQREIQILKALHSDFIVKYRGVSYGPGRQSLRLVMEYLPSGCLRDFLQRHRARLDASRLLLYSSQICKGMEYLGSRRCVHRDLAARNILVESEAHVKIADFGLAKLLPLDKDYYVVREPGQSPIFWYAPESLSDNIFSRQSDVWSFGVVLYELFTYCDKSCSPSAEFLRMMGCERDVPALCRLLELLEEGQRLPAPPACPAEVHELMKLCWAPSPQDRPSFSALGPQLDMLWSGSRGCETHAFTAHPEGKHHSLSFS
Summary of the method: as §2

| SMILES | IC50 [1] [µM] | IC50 ([2]; Homo sapiens, TF-1, TF-1 cells) [µM] | IC50 [3] [µM] | IC50 [4] [µM] | IC50 [5] [µM] | IC50 ([6]; HT2, HT-2 cells) [µM] | IC50 [7] [µM] | IC50 ([2]; TF-1 cells) [µM] | IC50 ([6]; HT-2 cells) [µM] |
| --- | --- | --- | --- | --- | --- | --- | --- | --- | --- |
| CC(C)C(O)(c1ccc(-n2cc(-c3ccnc4[nH]cnc34)cn2)nc1)C(F)(F)F (centres unmarked) [Example 1129, 2-(6-(4-(3H-imidazo[4,5-b]pyridin-7-yl)-1H-pyrazol-1-yl)pyridin-3-yl)-1,1,1-trifluoro-3-methylbutan-2-ol] | > 10 | > 0.5 | > 0.1 | > 1 | < 0.1 | > 1 | < 0.1 |  |  |
| CC(=O)N1CCC(C(O)(c2ccc(-n3cc(-c4ccnc5[nH]cnc45)cn3)nc2)C(F)(F)F)CC1 (centres unmarked) [Example 1131, 1-(4-(1-(6-(4-(3H-imidazo[4,5-b]pyridin-7-yl)-1H-pyrazol-1-yl)pyridin-3-yl)-2,2,2-trifluoro-1-hydroxyethyl)piperidin-1-yl)ethanone] | > 10 | > 0.5 | 0.38 | > 1 | 0.053 | > 1 | 0.11 |  |  |
| FC(F)(F)C(c1ccc(-n2cc(-c3ccnc4[nH]cnc34)cn2)nc1)C1COC1 (centres unmarked) [Example 1136, 7-(1-(5-(2,2,2-trifluoro-1-(oxetan-3-yl)ethyl)pyridin-2-yl)-1H-pyrazol-4-yl)-3H-imidazo[4,5-b]pyridine] | > 1 | 0.7 | < 0.1 | > 1 | < 0.1 | 0.8 | < 0.1 |  |  |
| CS(=O)(=O)NCCC(c1ccc(-n2cc(-c3ccnc4[nH]cnc34)cn2)nc1)C(F)(F)F (centres unmarked) [Example 1143, N-(3-(6-(4-(3H-imidazo[4,5-b]pyridin-7-yl)-1H-pyrazol-1-yl)pyridin-3-yl)-4,4,4-trifluorobutyl)methanesulfonamide] | < 1 | 0.47 | < 0.1 | > 1 | < 0.1 | 0.67 | < 0.1 |  |  |
| CNC(=O)CC(c1ccc(-n2cc(-c3ccnc4[nH]cnc34)cn2)nc1)C(F)(F)F (centres unmarked) [Example 1145, 3-(6-(4-(3H-imidazo[4,5-b]pyridin-7-yl)-1H-pyrazol-1-yl)pyridin-3-yl)-4,4,4-trifluoro-N-methylbutanamide] | > 1 | > 0.5 | > 0.1 | > 1 | < 0.1 | > 1 | < 0.1 |  |  |
| O=C(CCC(c1ccc(-n2cc(-c3ccnc4[nH]cnc34)cn2)nc1)C(F)(F)F)NC1CC1 (centres unmarked) [Example 1150, 4-(6-(4-(3H-imidazo[4,5-b]pyridin-7-yl)-1H-pyrazol-1-yl)pyridin-3-yl)-N-cyclopropyl-5,5,5-trifluoropentanamide] | > 1 | > 0.5 | < 0.1 | > 1 | < 0.1 | > 1 | < 0.1 |  |  |
| O=C(NCCC(c1ccc(-n2cc(-c3ccnc4[nH]cnc34)cn2)nc1)C(F)(F)F)C1CCCC1 (centres unmarked) [Example 1151, N-(3-(6-(4-(3H-imidazo[4,5-b]pyridin-7-yl)-1H-pyrazol-1-yl)pyridin-3-yl)-4,4,4-trifluorobutyl)cyclopentanecarboxamide] | > 1 | > 0.5 | > 0.1 | > 1 | < 0.1 | > 1 | > 0.1 |  |  |

The remaining lines, values ahead:

| IC50 [1] [µM] | IC50 ([2]; Homo sapiens, TF-1, TF-1 cells) [µM] | IC50 [3] [µM] | IC50 [4] [µM] | IC50 [5] [µM] | IC50 ([6]; HT2, HT-2 cells) [µM] | IC50 [7] [µM] | IC50 ([2]; TF-1 cells) [µM] | IC50 ([6]; HT-2 cells) [µM] | SMILES |
| --- | --- | --- | --- | --- | --- | --- | --- | --- | --- |
| > 1 | 0.36 | < 0.1 | > 0.5 | < 0.1 | 2.1 | < 0.1 |  |  | FC(F)(F)C(CCNC1CC1)c1ccc(-n2cc(-c3ccnc4[nH]cnc34)cn2)nc1 (centres unmarked) [Example 1153, N-(3-(6-(4-(3H-imidazo[4,5-b]pyridin-7-yl)-1H-pyrazol-1-yl)pyridin-3-yl)-4,4,4-trifluorobutyl)cyclopropanamine] |
| > 1 | > 0.5 | < 0.1 | > 0.5 | < 0.1 | > 0.5 | < 0.1 |  |  | OCCC(c1ccc(-n2cc(-c3ccnc4[nH]cnc34)cn2)nc1)C(F)(F)F (centres unmarked) [Example 1154, 3-(6-(4-(3H-imidazo[4,5-b]pyridin-7-yl)-1H-pyrazol-1-yl)pyridin-3-yl)-4,4,4-trifluorobutan-1-ol] |
| > 10 | 0.3 | 0.108 | > 1 | 0.018 | 1.3 | 0.055 |  |  | CS(=O)(=O)CCC(c1ccc(-n2cc(-c3ccnc4[nH]cnc34)cn2)nc1)C(F)(F)F (centres unmarked) [Example 1174, 7-(1-(5-(1,1,1-trifluoro-4-(methylsulfonyl)butan-2-yl)pyridin-2-yl)-1H-pyrazol-4-yl)-3H-imidazo[4,5-b]pyridine] |
| 1 | > 1 | < 0.1 | > 1 | < 0.1 | > 1 | < 0.1 |  |  | O=C(NC1CC1)NC(c1ccc(-n2cc(-c3ccnc4[nH]cnc34)cn2)nc1)C(F)(F)F (centres unmarked) [Example 1178, 1-(1-(6-(4-(3H-imidazo[4,5-b]pyridin-7-yl)-1H-Pyrazol-1-yl)pyridin-3-yl)-2,2,2-trifluoroethyl)-3-cyclopropylurea] |
| > 1 | > 1 | < 0.1 | > 1 | < 0.1 | > 1 | < 0.1 |  |  | O=C(NCCC(c1ccc(-n2cc(-c3ccnc4[nH]cnc34)cn2)nc1)C(F)(F)F)NC1CC1 (centres unmarked) [Example 1179, 1-(3-(6-(4-(3H-imidazo[4,5-b]pyridin-7-yl)-1H-Pyrazol-1-yl)pyridin-3-yl)-4,4,4-trifluorobutyl)-3-cyclopropylurea] |
| > 1 | > 0.8 | > 0.1 | > 1 | < 0.1 | > 1 | > 0.1 |  |  | CC(C)S(=O)(=O)CCC(c1ccc(-n2cc(-c3ccnc4[nH]cnc34)cn2)nc1)C(F)(F)F (centres unmarked) [Example 1186, 7-(1-(5-(1,1,1-trifluoro-4-(isopropylsulfonyl)butan-2-yl)pyridin-2-yl)-1H-pyrazol-4-yl)-3H-imidazo[4,5-b]pyridine] |
| 1 |  | < 0.1 | > 0.5 | < 0.1 |  | < 0.1 | 0.1 | 0.6 | CNCCC(c1ccc(-n2cc(-c3ccnc4[nH]cnc34)cn2)nc1)C(F)(F)F (centres unmarked) [Example 1198, 3-(6-(4-(3H-imidazo[4,5-b]pyridin-7-yl)-1H-pyrazol-1-yl)pyridin-3-yl)-4,4,4-trifluoro-N-methylbutan-1-amine] |
